The text below walks through data of a melting point compilation (Tetko et al.).

The melting point is the temperature of the solid-liquid transition.

Each structure is given as a SMILES string.

In the case of `O=C(O)c1cnn(-c2ncccc2Cl)c1C(F)(F)C(F)(F)F`, the melting point was in the range of 141 to 143 °C.
Take `CN1CC(=O)Nc2cc(C(=O)O)ccc21`: the melting point lay within 322 to 324 °C.
In turn, `COc1ccc(CNc2nccs2)c(OC)c1` gave a melting point of 112 to 114 °C.
Compound `O=S(=O)(Cl)c1ccc2c(c1)CCC2` had a melting point of 33 to 42 °C.
For the compound `Nc1cc(F)c(Br)cc1C(=O)O`, the melting point is 189 to 191 °C.
`NS(=O)(=O)c1ccc(Cl)c(C(=O)O)c1` showed a melting point of 219 to 221 °C.
In turn, `Cc1ccc(-c2csc(CC(N)=S)n2)cc1` displayed a melting point of 117 to 119 °C.
Regarding `COc1ccc(-c2cc(N)n(-c3cccc(C)c3)n2)cc1`, the melting point lay within 125 to 127 °C.
The compound `CC(C)(C)OC(=O)N1C2CCC1CC(O)C2` (centres undefined) displayed a melting point of 140 to 142 °C.
As for `CCOc1ccc(Br)cc1S(=O)(=O)Nc1ccc(N)cc1`, the melting point lay within 77 to 79 °C.
Regarding `Nc1cc(C2CC2)nn1-c1ncccn1`, the melting point lay within 144 to 146 °C.
`COCCn1cnc2c1c(=O)n(CC(=O)O)c(=O)n2Cc1ccccc1` displayed a melting point of 131 to 133 °C.
Compound `Fc1cc(CBr)c2ncccc2c1` displayed a melting point of 96 to 98 °C.
With `CCOC(=O)c1sc2nc(CSc3ccccc3)nc(Cl)c2c1C`, the melting point lay within 52 to 54 °C.
With `Nc1ccc(Br)c(I)c1`, the melting point lay within 74 to 76 °C.
The compound `CS(=O)(=O)Nc1ccc(-c2csc(N)n2)cc1` came in with a melting point of 196 to 198 °C.
The compound `Cc1nc(-c2cc(C(=O)O)n(C)c2)cs1` gave a melting point of 171 to 173 °C.
Regarding `Cc1cc(CS(=O)(=O)Cl)no1`, the melting point is 43 to 45 °C.
For the compound `Cc1ccc(-c2nnc(N)s2)c(C)c1`, the melting point was 180 to 182 °C.
As for `NS(=O)(=O)c1ccc2c(c1)CCCN2`, the figure is 161 to 163 °C; as for `COC(=O)c1cc(OC)c(OC)c(OC)c1N`, 44 to 45 °C.
Turning to `CCOC=C1C(=O)N(c2ccccn2)C(=O)c2ccccc21`, the melting point lay in the range of 231 to 233 °C.
The compound `COC(=O)c1cc(CBr)on1` returned a melting point of 59 to 61 °C.
For the compound `O=C(O)CN1CCCS1(=O)=O`, the melting point lay in the range of 83 to 85 °C.
On to `Cc1c(O)ccc2c(CCl)cc(=O)oc12`, for which the melting point was 268 to 270 °C.
Compound `O=Cc1cc([N+](=O)[O-])ccc1OC(F)F` returned a melting point of 46 to 48 °C.
In the case of `Cc1cc(C(=O)O)ncn1`, the melting point fell in the range of 129 to 131 °C.
`O=C(O)CC=Cc1ccc(F)cc1` came in with a melting point of 111 to 113 °C.
As for `Cn1ccnc1C(N)c1ccc(Cl)cc1` (centres undefined), the melting point lay within 45 to 49 °C.
In turn, `Nc1cc(-c2cccc([N+](=O)[O-])c2)n[nH]1` came in with a melting point of 137 to 139 °C.
In turn, `Cc1nc(S)c(C#N)cc1C(=O)Nc1ccccc1` had a melting point of 201 to 203 °C.
Turning to `CC(=O)c1ccc2cc(O)ccc2c1`, the melting point lay in the range of 170 to 172 °C.
With `OCCN1CCN(Cc2ccsc2)CC1`, the melting point lay within 68 to 70 °C.
For the compound `COc1cc(I)c(Cl)cc1C(=O)O`, the melting point was in the range of 141 to 143 °C.
Turning to `N#Cc1cccnc1OCC(F)(F)F`, the melting point was in the range of 40 to 42 °C.
The result for `CN(C)S(=O)(=O)c1ccc2c(c1)CCCN2` reads 160 to 162 °C; that for `Cc1nn(-c2ccccc2)c(C)c1CN`, 77 to 79 °C; that for `COc1cc2ncn(CCC(=O)O)c(=O)c2cc1OC`, 95 to 97 °C.
`Cc1ccc(S(N)(=O)=O)c(F)c1` gave a melting point of 138 to 140 °C.
Turning to `CC(C)N(C)S(=O)(=O)c1ccc(N)cc1`, the melting point lay within 119 to 121 °C.
For the compound `N#Cc1ccc2cc(C(=O)O)ccc2c1`, the melting point fell in the range of 279 to 281 °C.
`COC(=O)c1cc(Br)cc(S(=O)(=O)Cl)c1` showed a melting point of 59 to 61 °C.
`O=C(Nc1ccccc1)c1cccc(O)c1` registered a melting point of 151 to 153 °C.
As for `COc1ccc(Nc2nc3cc(S(=O)(=O)N4CCOCC4)ccc3o2)cc1`, the figure is 219 to 221 °C.
The result for `Sc1nnc(Nc2ccc(Oc3ccccc3)cc2)s1` reads 183 to 185 °C; that for `CCC(c1ccccc1)c1nnc(N)s1` (centres undefined), 184 to 186 °C; that for `CNS(=O)(=O)c1cc(C(=O)O)ccc1F`, 209 to 211 °C.
On to `COc1ccccc1-c1nnc(S)n1C`, for which the melting point lay within 177 to 179 °C.
Compound `Sc1nnnn1-c1ccc(Cl)cc1` returned a melting point of 162 to 164 °C.
In the case of `CCCn1c(S)nnc1-c1ccncc1`, the melting point was 258 to 260 °C.
The compound `NC(=O)c1cc(-c2cccs2)on1` gave a melting point of 190 to 192 °C.
Compound `O=C(O)c1cc([N+](=O)[O-])ccc1SC1CCCC1` had a melting point of 203 to 205 °C.
`O=C(O)c1cc(S(=O)(=O)N2CCOCC2)ccc1N1CCCCC1` had a melting point of 179 to 181 °C.
As to `O=C(O)c1cc(/C=C/c2ccc(OC(F)(F)F)cc2)nc2ccc(Br)cc12`, the melting point was 311 to 313 °C.
`CCN1C(=C2C=NN(C)C2=N)Nc2ccccc21`: the melting point lay in the range of 111 to 113 °C.
For the compound `COC(=O)c1ccc(F)c(Cl)c1F`, the melting point was 47 to 49 °C.
As to `N#CCC(=O)NCCc1ccccc1`, the melting point was 91 to 93 °C.
Regarding `O=C(Nc1nc(C(F)(F)F)cs1)OCC(F)(F)F`, the melting point is 78 to 80 °C.
Turning to `CCOC(=O)c1nnc2ccccc2c1Cl`, the melting point is 53 to 55 °C.
For the compound `CC(C)Oc1ccc(C(=O)NN)cc1`, the melting point lay in the range of 117 to 119 °C.
In turn, `O=C1CC2(CCCCC2)CN1` had a melting point of 89 to 91 °C.
For `CC(C)Oc1ccc(S(=O)(=O)N2CCOCC2)cc1N`, the melting point fell in the range of 149 to 151 °C.
Consider `O=C(O)c1c[nH]cc1-c1ccc([N+](=O)[O-])cc1`, for which the melting point was in the range of 209 to 211 °C.
The result for `Sc1nnc(N2CCOCC2)n1Cc1ccco1` reads 151 to 153 °C.
In the case of `CC(Cl)C(=O)NCc1ccc(F)cc1` (centres undefined), the melting point is 90 to 92 °C.
Compound `O=C(NCCN1CCOCC1)C1CCNCC1` displayed a melting point of 127 to 129 °C.
The result for `CC(C)n1[nH]ccc1=NC(=O)OCC(F)(F)F` reads 77 to 79 °C; that for `O=c1[nH]cc(Br)c2sccc12`, 229 to 231 °C; that for `CCN(CC)S(=O)(=O)c1ccc(CCC(=O)O)cc1`, 150 to 152 °C.
Compound `Nc1nnc(CCc2ccccc2)o1` yielded a melting point of 195 to 197 °C.
As for `O=C(Nc1ccccc1Cl)OCC(F)(F)F`, the figure is 44 to 46 °C; as for `CC(C)c1noc(-c2ccc(Br)cc2)n1`, 29 to 31 °C; as for `O=C(CCl)c1ccc2c(c1)-c1ccccc1C2`, 133 to 135 °C.
The compound `CC(C)(C)c1ccc(NC(N)=S)cc1` showed a melting point of 153 to 155 °C.
In turn, `O=S(=O)(Cl)C1=Cc2ccc(OC(F)F)cc2CC1` had a melting point of 72 to 74 °C.
As to `Sc1nc2ncccn2n1`, the melting point was in the range of 234 to 236 °C.
The compound `Cc1ccc(CNC(=O)NCC(=O)O)cc1` gave a melting point of 174 to 176 °C.
Compound `O=C(O)c1coc(-c2ccccc2)n1` had a melting point of 209 to 211 °C.
Regarding `CN1CC(=O)N(c2cccc([N+](=O)[O-])c2)C1=O`, the melting point fell in the range of 144 to 146 °C.
In the case of `CC(C)(C)OC(=O)Nc1cc2ccccc2cc1C(=O)O`, the melting point was 179 to 181 °C.
On to `NC(=O)Nc1ccc(F)c(Cl)c1`, for which the melting point is 166 to 168 °C.
With `COC(=O)c1ccc(CS(N)(=O)=O)cc1`, the melting point lay within 138 to 140 °C.
The result for `O=C(O)c1cnc(O)cc1O` reads 293 to 295 °C.
The result for `CC(C)c1nc(C(=O)O)nn1-c1ccccc1F` reads 159 to 161 °C.
